Laboratory results taken from EPA's ToxValDB 9.5.

System: Rattus norvegicus
Details: short-term, duration: 28 days, oral, gavage, Sprague-Dawley

O=C(O)C(F)(F)C(F)(F)C(F)(F)C(F)(F)C(F)(F)F [Perfluorohexanoic acid]
1000 mg/kg-day: NOEL (F, Clinical chemistry_Albumin) | LOEL (F, Clinical chemistry_Albumin/globulin ratio) | LOEL (F, Clinical chemistry_Alkaline phosphatase) | NOEL (F, Clinical chemistry_Cholesterol) | NOEL (F, Clinical chemistry_Creatinine kinase) | NOEL (F, Clinical chemistry_Direct bilirubin) | NOEL (F, Clinical chemistry_Free thyroxine) | LOEL (F, Clinical chemistry_Globulin) | NOEL (F, Clinical chemistry_Indirect bilirubin) | NOEL (F, Clinical chemistry_Sorbitol dehydrogenase) | NOEL (F, Clinical chemistry_Testosterone) | NOEL (F, Clinical chemistry_Thyroid stimulating hormone) | LOEL (F, Clinical chemistry_Total bile acids) | LOEL (F, Clinical chemistry_Total protein) | NOEL (F, Clinical chemistry_Total thyroxine) | NOEL (F, Clinical chemistry_Total triiodothyronine) | NOEL (F, Clinical chemistry_Triglycerides) | LOEL (F, Hematology_Mean corpuscular hemoglobin concentration) | LOEL (F, Hematology_Platelets) | NOEL (F, Nonneoplastic effects_Bone marrow - Hypocellularity) | NOEL (F, Nonneoplastic effects_Forestomach - Epithelium, hyperplasia) | NOEL (F, Nonneoplastic effects_Forestomach - Inflammation, chronic active) | LOEL (F, Nonneoplastic effects_Kidney - Nephropathy, chronic progressive) | NOEL (F, Nonneoplastic effects_Liver - Hepatocyte, Necrosis) | LOEL (F, Nonneoplastic effects_Liver - Hepatocyte, cytoplasmic alteration) | LOEL (F, Nonneoplastic effects_Liver - Hepatocyte, hypertrophy) | NOEL (F, Nonneoplastic effects_Liver - Hepatocyte, vacuolization cytoplasmic) | NOEL (F, Nonneoplastic effects_Lymph nodes - Mandibular, atrophy) | NOEL (F, Nonneoplastic effects_Lymph nodes - Mesenteric, atrophy) | NOEL (F, Nonneoplastic effects_Nose - Respiratory epithelium, hyperplasia) | NOEL (F, Nonneoplastic effects_Nose - Respiratory epithelium, inflammation, chronic active) | NOEL (F, Nonneoplastic effects_Spleen - Atrophy) | LOEL (F, Nonneoplastic effects_Spleen - Extramedullary hematopoiesis, increased) | NOEL (F, Nonneoplastic effects_Thymus - Atrophy) | NOEL (F, Nonneoplastic effects_Thymus - Lymphocyte, apoptosis) | NOEL (F, Nonneoplastic effects_Thyroid gland - Follicular cell hypertrophy) | NOEL (F, Organ weights_R. adrenal gland - Absolute) | NOEL (F, Organ weights_R. adrenal gland - Relative) | LOEL (F, Organ weights_R. kidney - Absolute) | LOEL (F, Organ weights_R. kidney - Relative) | NOEL (F, Organ weights_Spleen - Absolute) | NOEL (F, Organ weights_Spleen - Relative) | NOEL (F, Organ weights_Thymus - Absolute) | NOEL (F, Organ weights_Thymus - Relative) | NOEL (F, Organ weights_Thyroid gland - Absolute) | NOEL (F, Organ weights_Thyroid gland - Relative) | NOEL (F, Survival rates) | NOEL (F, body weight) | NOEL (M, Clinical chemistry_Creatinine kinase) | NOEL (M, Clinical chemistry_Direct bilirubin) | LOEL (M, Clinical chemistry_Sorbitol dehydrogenase) | NOEL (M, Clinical chemistry_Testosterone) | NOEL (M, Clinical chemistry_Thyroid stimulating hormone) | LOEL (M, Clinical chemistry_Total bile acids) | NOEL (M, Clinical chemistry_Triglycerides) | LOEL (M, Hematology_Mean corpuscular hemoglobin concentration) | NOEL (M, Nonneoplastic effects_Bone marrow - Hypocellularity) | NOEL (M, Nonneoplastic effects_Epididymis - Duct, exfoliated germ cell) | NOEL (M, Nonneoplastic effects_Epididymis - Epithelium, apoptosis) | NOEL (M, Nonneoplastic effects_Epididymis - Hypospermia) | NOEL (M, Nonneoplastic effects_Forestomach - Epithelium, hyperplasia) | NOEL (M, Nonneoplastic effects_Forestomach - Inflammation, chronic active) | NOEL (M, Nonneoplastic effects_Kidney - Nephropathy, chronic progressive) | NOEL (M, Nonneoplastic effects_Liver - Hepatocyte, Necrosis) | LOEL (M, Nonneoplastic effects_Liver - Hepatocyte, cytoplasmic alteration) | NOEL (M, Nonneoplastic effects_Liver - Hepatocyte, vacuolization cytoplasmic) | NOEL (M, Nonneoplastic effects_Lymph nodes - Mandibular, atrophy) | NOEL (M, Nonneoplastic effects_Lymph nodes - Mesenteric, atrophy) | LOEL (M, Nonneoplastic effects_Nose - Olfactory epithelium, inflammation, suppurative) | NOEL (M, Nonneoplastic effects_Nose - Respiratory epithelium, hyperplasia) | NOEL (M, Nonneoplastic effects_Nose - Respiratory epithelium, inflammation, chronic active) | NOEL (M, Nonneoplastic effects_Spleen - Atrophy) | NOEL (M, Nonneoplastic effects_Testes - Germinal epithelium, degeneration) | NOEL (M, Nonneoplastic effects_Testes - Interstitial cell, atrophy) | NOEL (M, Nonneoplastic effects_Testes - Seminiferous tubule, spermatid retention) | NOEL (M, Nonneoplastic effects_Thymus - Atrophy) | NOEL (M, Nonneoplastic effects_Thymus - Lymphocyte, apoptosis) | NOEL (M, Nonneoplastic effects_Thyroid gland - Follicular cell hypertrophy) | NOEL (M, Organ weights_R. adrenal gland - Absolute) | NOEL (M, Organ weights_R. adrenal gland - Relative) | NOEL (M, Organ weights_R. kidney - Absolute) | NOEL (M, Organ weights_R. testis - Absolute) | NOEL (M, Organ weights_Spleen - Absolute) | NOEL (M, Organ weights_Spleen - Relative) | LOEL (M, Organ weights_Thymus - Absolute) | NOEL (M, Organ weights_Thymus - Relative) | NOEL (M, Organ weights_Thyroid gland - Absolute) | NOEL (M, Organ weights_Thyroid gland - Relative) | LOEL (M, Reproductive toxicity_Altered sperm parameters) | NOEL (M, Survival rates) | LOEL (M, body weight)
500 mg/kg-day: LOEL (F, Clinical chemistry_Alanine aminotransferase) | LOEL (F, Clinical chemistry_Aspartate aminotransferase) | LOEL (F, Gene expression_Acox1) | LOEL (F, Gene expression_Cyp4a1) | LOEL (F, Hematology_Mean corpuscular volume) | LOEL (F, Hematology_Reticulocytes) | LOEL (F, Nonneoplastic effects_Nose - Olfactory epithelium, inflammation, suppurative) | LOEL (F, Organ weights_Liver - Absolute) | LOEL (F, Organ weights_Liver - Relative) | LOEL (M, Clinical chemistry_Alanine aminotransferase) | LOEL (M, Clinical chemistry_Alkaline phosphatase) | LOEL (M, Clinical chemistry_Aspartate aminotransferase) | LOEL (M, Gene expression_Acox1) | LOEL (M, Hematology_Platelets) | LOEL (M, Hematology_Reticulocytes) | LOEL (M, Nonneoplastic effects_Liver - Hepatocyte, hypertrophy) | LOEL (M, Nonneoplastic effects_Spleen - Extramedullary hematopoiesis, increased) | LOEL (M, Organ weights_Liver - Absolute) | LOEL (M, Organ weights_R. kidney - Relative)
62.6 mg/kg-day: LOEL (F, Gene expression_Cyp2b1) | LOEL (F, Gene expression_Cyp2b2) | LOEL (M, Clinical chemistry_Cholesterol) | LOEL (M, Clinical chemistry_Free thyroxine) | LOEL (M, Clinical chemistry_Total thyroxine) | LOEL (M, Clinical chemistry_Total_triiodothyronine) | LOEL (M, Gene expression_Cyp2b1) | LOEL (M, Gene expression_Cyp2b2) | LOEL (M, Gene expression_Cyp4a1) | LOEL (M, Hematology_Erythrocytes) | LOEL (M, Hematology_Hematocrit) | LOEL (M, Hematology_Hemoglobin)
125 mg/kg-day: LOEL (M, Clinical chemistry_Albumin) | LOEL (M, Clinical chemistry_Globulin)
250 mg/kg-day: LOEL (F, Hematology_Erythrocytes) | LOEL (F, Hematology_Hematocrit) | LOEL (F, Hematology_Hemoglobin) | LOEL (F, Nonneoplastic effects_Nose - Olfactory epithelium, degeneration) | LOEL (F, Nonneoplastic effects_Nose - Olfactory epithelium, hyperplasia) | LOEL (M, Clinical chemistry_Albumin/globulin ratio) | LOEL (M, Clinical chemistry_Total protein) | LOEL (M, Gene expression_Acyl-CoA oxidase) | LOEL (M, Hematology_Mean corpuscular volume) | LOEL (M, Nonneoplastic effects_Nose - Olfactory epithelium, degeneration) | LOEL (M, Nonneoplastic effects_Nose - Olfactory epithelium, hyperplasia) | LOEL (M, Organ weights_Liver - Relative)
